This note sets out measurements from US11066401B2, “Pyrimidine compound, chloride salt thereof, and manufacturing and application of same” (SHENZHEN HAIBIN PHARMACEUTICAL CO., LTD, priority 2016, dated 2021).

In one series the target is PIM1 (Homo sapiens, UniProt P11309). As to the kind of experiment: Assay of PIM kinase activity, PIM1. It counts as biochemical. Particulars: 6 concentrations, initial concentration 30 nM; read-out: IC50 PIM 1. On the procedure:
(§1) Dose-dependent experiments on PIM1, PIM2 and PIM3 were commissioned to Shanghai Runnuo Biotechnology, 6 concentration gradients were set, the initial concentration was 30 nM, 200 nM and 30 nM, then diluted successively, the inhibitive effects of compounds on PIM kinase was tested, the results were shown in Table 9.

For the next series, the target named is PIM2 (Homo sapiens, UniProt Q9P1W9). The experiment in a line: Assay of PIM kinase activity, PIM2. Particulars: 6 concentrations, initial concentration 200 nM; read-out: IC50 PIM 2. It counts as biochemical. On the procedure:
as §1

Series [1] can be described thus: Test for hygroscopicity (Chinese Pharmacopeia 2010, Appendix XIX J). Type of series: physicochemical. As for the experimental part: The experiment was carried out according to Guiding Principles of Drug Hygroscopicity Test, Appendix XIX J, Second Part, Chinese Pharmacopeia (2010), the weight increased by hygroscopy of samples (compound shown in Formula (I) and salts thereof prepared in EXAMPLES 1-17) was calculated respectively, the results were shown in Table 4.

Series [2] is described as follows: Test for stability: related substances under high temperature and illumination (HPLC). It counts as physicochemical. Particulars: for Related substances Day 10 under high temperature / Related substances Day 10 under illumination condition / Related substances Day 0: acetonitrile-water (1:1) solution; for Related substances Day 10 under high temperature: 60° C., in % (unit assumed); for Related substances Day 10 under high temperature / Related substances Day 10 under illumination condition: 10 days, area normalization; for Related substances Day 10 under illumination condition: 4500 lx±500 lx; for Related substances Day 0: day 0, area normalization. On the procedure:
The experiment was carried out according to Guiding Principles of Active Pharmaceutical Ingredient and Pharmaceutical Formulation Stability Test, Appendix XIX C, Second Part, Chinese Pharmacopeia (2010), the increase of related substance of the solution of compounds shown in formula (I) and salts thereof (EXAMPLES 1-17) under high temperature condition (60° C.) and illumination (the light intensity was 4500 lx±500 lx) was detected to evaluate the stability.
Wherein, the method for detecting related substance was shown as following:
HPLC: Waters 2695 UV Detector
Chromatographic Column: Diamonsil C18 (2) 5 μm, 150×4.6 mm
Detection wavelength: 322 nm
Column temperature: 30° C.
Mobile phase B: buffer (900 ml water+10 ml triethylamine+5 ml phosphoric acid, being diluted to 1000 ml with water)
The testing samples were prepared by using acetonitrile-water (1:1) solution with a concentration of 10-100 μg/ml, kept under high temperature (60° C.) and illumination (the light intensity was 4500 lx±500 lx) respectively for 10 days, the mass of related substance was determined on day 0 and day 10 (calculated by using area normalization), the results were shown in Table 6.

Series [3] is described as follows: Pharmacokinetic test, absolute bioavailability in rats. Particulars: male SD rats, i.g. 40 mg/kg vs i.v. 20 mg/kg. It counts as in vivo. On the procedure:
48 male SD rats with a body weight of 200-220 g were randomly divided into 8 groups with 6 mice each group, administered the compound shown in Formula (I), the hydrochloride salt, mesylate and acetate thereof intragastrically (i.g.) and intravenously (i.v.) respectively, and the protocol was shown in Table 7:
Intragastric administration: 2% of HPMC
Intravenous administration: a solution prepared with 20% PEG
The rats were fasted for 12 hours with free access to water prior to experiment; and fed together 2 hours after administration.
Blood sampling time points: 5 min (only administering intravenously), 0.25 h, 0.5 h, 1.0 h, 2.0 h, 4.0 h, 6.0 h, 8.0 h and 24 h after administration;
Sample treatment: 0.3 ml venous blood was obtained from rats' posterior ocular vein plexus at the above-mentioned time points, put into a heparinized tube, centrifuged for 5 minutes at 11000 rpm to separate plasma, then frozen in a refrigerator at −20° C.
The concentration of parent drugs in rat's plasma was detected by utilizing LC/MS/MS.
Wherein, F: absolute bioavailability; AUC: area under the curve; D: Dosage

For another series, the target named is PIM3 (Homo sapiens, UniProt Q86V86). As to the kind of experiment: Assay of PIM kinase activity, PIM3. Type of series: biochemical. Particulars: 6 concentrations, initial concentration 30 nM; read-out: IC50 PIM 3. On the procedure:
as §1

Series [4] in a line: Test of solubility in water (HPLC).
Procedure: Wherein, the chromatographic condition was shown as follows:
Chromatographic Column: C18
Column temperature: 25° C.
Mobile phase A: 0.1% TFA-water
Mobile phase B: 0.1% TFA-CAN

Where a name gives a salt, the structure may show the parent alone. Read-outs that look alike come from different tables or passages of the source.

Chain of PIM2 (Q9P1W9 whole entry): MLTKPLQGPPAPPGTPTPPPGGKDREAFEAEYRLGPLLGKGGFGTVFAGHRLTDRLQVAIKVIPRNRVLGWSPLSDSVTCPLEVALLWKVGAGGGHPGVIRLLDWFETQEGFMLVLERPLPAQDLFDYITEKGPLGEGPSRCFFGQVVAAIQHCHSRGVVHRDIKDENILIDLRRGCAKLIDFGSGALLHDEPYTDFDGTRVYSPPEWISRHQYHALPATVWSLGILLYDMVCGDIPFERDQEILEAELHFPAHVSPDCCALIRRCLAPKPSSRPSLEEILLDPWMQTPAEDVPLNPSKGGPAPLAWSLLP
Chain of PIM1 (P11309 whole entry): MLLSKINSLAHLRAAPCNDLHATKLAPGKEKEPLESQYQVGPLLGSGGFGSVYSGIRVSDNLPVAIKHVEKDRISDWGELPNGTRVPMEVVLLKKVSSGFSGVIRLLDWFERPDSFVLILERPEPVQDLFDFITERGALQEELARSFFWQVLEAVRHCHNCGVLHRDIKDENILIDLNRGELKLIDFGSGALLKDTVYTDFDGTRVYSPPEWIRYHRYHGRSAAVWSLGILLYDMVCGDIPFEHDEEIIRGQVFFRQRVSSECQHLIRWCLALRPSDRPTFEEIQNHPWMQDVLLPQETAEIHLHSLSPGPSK

Consider `Nc1sc(-c2c(F)cccc2F)nc1C(=O)Nc1cncnc1OCC1CCNCC1` [EXAMPLE 1, 5-amino-2-(2,6-difluorophenyl)-N-(4-(piperidine-4-methoxy)pyrimidine-5-) thiazole-4-formamide], for which the IC50 on PIM1 was 10 nM. For the same compound, the IC50 at PIM2 stood at 8.09 nM. Further, in series [1], the “Weight increased by hygroscopy” value is reported as 3.35%. In series [2], the “Related substances Day 10 under high temperature” value is 5.02, the Related substances Day 10 under illumination condition came to 3.02% and the Related substances Day 0 amounted to 0.45%. In series [3], the “Absolute Bioavailability” value worked out at 2.2%. Further, the half-maximal inhibitory concentration (IC50) on PIM3 stood at 23 nM.
`Nc1sc(-c2c(F)cccc2F)nc1C(=O)Nc1cncnc1OCC1CCNCC1.O=C(O)c1ccccc1` [EXAMPLE 9]: the “Weight increased by hygroscopy” value in series [1] amounted to 7.53%. In addition, in series [2], the “Related substances Day 10 under high temperature” value was determined as 5.56, the Related substances Day 10 under illumination condition was 4.44% and the Related substances Day 0 is 0.56%.
On to Palmitate [EXAMPLE 14], for which the “Weight increased by hygroscopy” value in series [1] is recorded as 6.43%. Besides, in series [2], the “Related substances Day 10 under high temperature” value amounted to 6.89, the Related substances Day 10 under illumination condition came out at 3.67% and the Related substances Day 0 was determined as 0.66%.
`Nc1sc(-c2c(F)cccc2F)nc1C(=O)Nc1cncnc1OCC1CCNCC1` (as salt: hydrochloride) [EXAMPLE 2] displayed a melting point of 236.1 to 239.4 °C.
`Cc1ccc(S(=O)(=O)O)cc1.Nc1sc(-c2c(F)cccc2F)nc1C(=O)Nc1cncnc1OCC1CCNCC1` [EXAMPLE 13]: the “Weight increased by hygroscopy” value in series [1] was found to be 5.78%. For the same compound, in series [2], the “Related substances Day 10 under high temperature” value is 8.94, the Related substances Day 10 under illumination condition was 5.67% and the Related substances Day 0 was found to be 0.65%.
Regarding `CC(=O)O.Nc1sc(-c2c(F)cccc2F)nc1C(=O)Nc1cncnc1OCC1CCNCC1` [EXAMPLE 12], the “Weight increased by hygroscopy” value in series [1] was found to be 9.21%. Further, in series [2], the “Related substances Day 10 under high temperature” value was 3.56, the Related substances Day 10 under illumination condition turned out to be 2.65% and the Related substances Day 0 was 0.62%. Further, in series [3], the “Absolute Bioavailability” value is 5.34%.
In the case of `Nc1sc(-c2c(F)cccc2F)nc1C(=O)Nc1cncnc1OCC1CCNCC1.O=C(O)/C=C\C(=O)O` [EXAMPLE 4], the “Weight increased by hygroscopy” value in series [1] amounted to 5.45%. In series [2], the “Related substances Day 10 under high temperature” value stood at 4.54, the Related substances Day 10 under illumination condition was determined as 2.22% and the Related substances Day 0 was 0.46%.
In the same order, the values of `Nc1sc(-c2c(F)cccc2F)nc1C(=O)Nc1cncnc1OCC1CCNCC1.O=S(=O)(O)O` [EXAMPLE 7] are 3.56%, 4.67, 2.45% and 0.52%.
In the same order, the values of `Nc1sc(-c2c(F)cccc2F)nc1C(=O)Nc1cncnc1OCC1CCNCC1.O=C(O)CC(O)(CC(=O)O)C(=O)O` [EXAMPLE 8] are 5.67%, 7.34, 5.52% and 0.52%.
On to `Nc1sc(-c2c(F)cccc2F)nc1C(=O)Nc1cncnc1OCC1CCNCC1.O=C(O)CCC(=O)O` [EXAMPLE 6, Succinate], for which the “Weight increased by hygroscopy” value in series [1] is recorded as 7.56%. Moreover, in series [2], the “Related substances Day 10 under high temperature” value was determined as 8.82, the Related substances Day 10 under illumination condition was found to be 4.56% and the Related substances Day 0 was 0.55%.
On to `CC(O)C(=O)O.Nc1sc(-c2c(F)cccc2F)nc1C(=O)Nc1cncnc1OCC1CCNCC1` [EXAMPLE 11], for which, in series [1], the “Weight increased by hygroscopy” value amounted to 3.67%. In series [2], the “Related substances Day 10 under high temperature” value is recorded as 10.78, the Related substances Day 10 under illumination condition worked out at 5.67% and the Related substances Day 0 turned out to be 0.54%.
Regarding Tartrate [EXAMPLE 16], in series [1], the “Weight increased by hygroscopy” value came to 7.88%. For the same compound, in series [2], the “Related substances Day 10 under high temperature” value turned out to be 6.89, the Related substances Day 10 under illumination condition amounted to 3.33% and the Related substances Day 0 is 0.63%.
In the same order, the values of `Br.Nc1sc(-c2c(F)cccc2F)nc1C(=O)Nc1cncnc1OCC1CCNCC1` [EXAMPLE 3] are 4.32%, 3.45, 1.67% and 0.52%.
For `CS(=O)(=O)O.Nc1sc(-c2c(F)cccc2F)nc1C(=O)Nc1cncnc1OCC1CCNCC1` [EXAMPLE 10], the “Weight increased by hygroscopy” value in series [1] is 8.21%. For the same compound, in series [2], the “Related substances Day 10 under high temperature” value was determined as 35.6, the Related substances Day 10 under illumination condition worked out at 23% and the Related substances Day 0 is 0.54%. The “Absolute Bioavailability” value in series [3] turned out to be 7.32%.
As to Ascorbate [EXAMPLE 17], the “Weight increased by hygroscopy” value in series [1] is on record as 5.67%. In addition, in series [2], the “Related substances Day 10 under high temperature” value was 18.98, the Related substances Day 10 under illumination condition was determined as 6.66% and the Related substances Day 0 came out at 0.56%.
As for `Nc1sc(-c2c(F)cccc2F)nc1C(=O)Nc1cncnc1OCC1CCNCC1.O=C(O)/C=C/C(=O)O` [EXAMPLE 15], in series [1], the “Weight increased by hygroscopy” value was 4.77%. Moreover, in series [2], the “Related substances Day 10 under high temperature” value was 9.12, the Related substances Day 10 under illumination condition came out at 6.54% and the Related substances Day 0 is 0.56%.
On to `Nc1sc(-c2c(F)cccc2F)nc1C(=O)Nc1cncnc1OCC1CCNCC1` [EXAMPLE 2], for which the concentration for half-maximal inhibition (IC50) on PIM1 turned out to be 2.31 nM; on PIM2, 1.54 nM; on PIM3, 4.36 nM. In series [4], the solubility in water entry is on record as “about 1 mg/mL”. For the same compound, the “Weight increased by hygroscopy” value in series [1] and in series [1] (listed as hydrochloride salt) was 0.52% throughout. In series [2], the “Related substances Day 10 under high temperature” value is reported as 0.68. The same compound gave a Related substances Day 10 under illumination condition in series [2] of 0.56%. This compound showed a Related substances Day 0 in series [2] of 0.49%. Further, in series [2] (after 10 days, heat, light), the “increase of the amount of related substance” value is not above 0.19%. The “Absolute Bioavailability” value in series [3] worked out at 32.2%.

The term IC50 denotes the concentration that inhibits the measured activity by half. A word on the melting point: it is the temperature, or range, at which the solid turns liquid.
